Test results published in ChEMBL document CHEMBL3044893, “Synthesis and structureactivity relationships of aliphatic isothiocyanate analogs as antibiotic agents” (Med Chem Res, 2013).
Converted amounts (≈) assume the structure as drawn.

What was measured:
[1] = test system: Rhizoctonia solani; assay: Growth inhibition of Rhizoctonia solani at 100 ug/ml after 24 to 28 […] by growth rate method; type: functional; details: read-out: GI
[2] = test system: Rhizoctonia solani; assay: Growth inhibition of Rhizoctonia solani at 50 ug/ml after 24 to 28 […] by growth rate method; type: functional; details: read-out: GI
[3] = test system: Rhizoctonia solani; assay: Growth inhibition of Rhizoctonia solani at 25 ug/ml after 24 to 28 […] by growth rate method; type: functional; details: read-out: GI
[4] = test system: Rhizoctonia solani; assay: Growth inhibition of Rhizoctonia solani at 15 ug/ml after 24 to 28 […] by growth rate method; type: functional; details: read-out: GI
[5] = test system: Rhizoctonia solani; assay: Growth inhibition of Rhizoctonia solani at 10 ug/ml after 24 to 28 […] by growth rate method; type: functional; details: read-out: GI
[6] = 1-octanol-water partition coefficient, log P of the compound by shake flask method; type: physicochemical
[7] = test system: Pectobacterium carotovorum; assay: Antibacterial activity against Pectobacterium carotovorum after 12 hr by turbidometric analysis; type: functional, organism-based
[8] = test system: Pectobacterium carotovorum; assay: Growth inhibition of Pectobacterium carotovorum at 100 ug/ml after 12 hr by turbidometric analysis; type: functional; details: read-out: GI
[9] = test system: Pectobacterium carotovorum; assay: Growth inhibition of Pectobacterium carotovorum at 80 ug/ml after 12 hr by turbidometric analysis; type: functional; details: read-out: GI
[10] = test system: Pectobacterium carotovorum; assay: Growth inhibition of Pectobacterium carotovorum at 50 ug/ml after 12 hr by turbidometric analysis; type: functional; details: read-out: GI
[11] = test system: Pectobacterium carotovorum; assay: Growth inhibition of Pectobacterium carotovorum at 20 ug/ml after 12 hr by turbidometric analysis; type: functional; details: read-out: GI
[12] = test system: Pectobacterium carotovorum; assay: Growth inhibition of Pectobacterium carotovorum at 10 ug/ml after 12 hr by turbidometric analysis; type: functional; details: read-out: GI
[13] = test system: Rhizoctonia solani; assay: Antifungal activity against Rhizoctonia solani after 24 to 28 […] by growth rate method; type: functional, organism-based
[14] = test system: Rhizoctonia solani; assay: Growth inhibition of Rhizoctonia solani at 300 ug/ml after 24 to 28 […] by growth rate method; type: functional; details: read-out: GI
[15] = test system: Rhizoctonia solani; assay: Growth inhibition of Rhizoctonia solani at 5 ug/ml after 24 to 28 […] by growth rate method; type: functional; details: read-out: GI
[16] = test system: Rhizoctonia solani; assay: Growth inhibition of Rhizoctonia solani at 500 ug/ml after 24 to 28 […] by growth rate method; type: functional; details: read-out: GI
[17] = test system: Pectobacterium carotovorum; assay: Growth inhibition of Pectobacterium carotovorum at 30 ug/ml after 12 hr by turbidometric analysis; type: functional; details: read-out: GI
[18] = test system: Pectobacterium carotovorum; assay: Growth inhibition of Pectobacterium carotovorum at 5 ug/ml after 12 hr by turbidometric analysis; type: functional; details: read-out: GI
[19] = test system: Pectobacterium carotovorum; assay: Growth inhibition of Pectobacterium carotovorum at 0.2 ug/ml after 12 hr by turbidometric analysis; type: functional; details: read-out: GI
[20] = test system: Pectobacterium carotovorum; assay: Growth inhibition of Pectobacterium carotovorum at 0.05 ug/ml after 12 hr by turbidometric analysis; type: functional; details: read-out: GI
[21] = test system: Rhizoctonia solani; assay: Growth inhibition of Rhizoctonia solani at 70 ug/ml after 24 to 28 […] by growth rate method; type: functional; details: read-out: GI
[22] = test system: Pectobacterium carotovorum; assay: Growth inhibition of Pectobacterium carotovorum at 70 ug/ml after 12 hr by turbidometric analysis; type: functional; details: read-out: GI
[23] = test system: Pectobacterium carotovorum; assay: Growth inhibition of Pectobacterium carotovorum at 0.5 ug/ml after 12 hr by turbidometric analysis; type: functional; details: read-out: GI
[24] = test system: Pectobacterium carotovorum; assay: Growth inhibition of Pectobacterium carotovorum at 0.01 ug/ml after 12 hr by turbidometric analysis; type: functional; details: read-out: GI
[25] = test system: Pectobacterium carotovorum; assay: Growth inhibition of Pectobacterium carotovorum at 1 ug/ml after 12 hr by turbidometric analysis; type: functional; details: read-out: GI
[26] = test system: Pectobacterium carotovorum; assay: Growth inhibition of Pectobacterium carotovorum at 0.02 ug/ml after 12 hr by turbidometric analysis; type: functional; details: read-out: GI
[27] = test system: Pectobacterium carotovorum; assay: Growth inhibition of Pectobacterium carotovorum at 2 ug/ml after 12 hr by turbidometric analysis; type: functional; details: read-out: GI

| SMILES | inhibition of growth at 100 µg/mL [1] [%] | inhibition of growth at 50 µg/mL [2] [%] | inhibition of growth at 10 µg/mL [5] [%] | logP [6] | EC50 [7] [µg/mL] | inhibition of growth at 50 µg/mL [10] [%] | inhibition of growth at 20 µg/mL [11] [%] | inhibition of growth at 10 µg/mL [12] [%] | EC50 [13] [µg/mL] | inhibition of growth at 300 µg/mL [14] [%] | inhibition of growth at 5 µg/mL [15] [%] | inhibition of growth at 500 µg/mL [16] [%] | inhibition of growth at 5 µg/mL [18] [%] | also measured |
| --- | --- | --- | --- | --- | --- | --- | --- | --- | --- | --- | --- | --- | --- | --- |
| CN=C=S [METHYLISOTHIOCYANATE] | 84.6 | 77.5 | 41.5 | 1.13 | 38.2 (≈ 523 µM) | 61.1 | 29.9 | 10.9 | 12.3 (≈ 169 µM) |  |  |  |  | inhibition of growth at 25 µg/mL [3]: 66.3%; inhibition of growth at 15 µg/mL [4]: 49.7%; inhibition of growth at 100 µg/mL [8]: 81.3%; inhibition of growth at 80 µg/mL [9]: 71.5% |
| CCCN=C=S [PROPYL ISOTHIOCYANATE] | 84.2 | 68 | 50.1 | 2.15 | 20.6 (≈ 204 µM) | 76.3 | 47 | 29 | 12 (≈ 118 µM) | 93.7 | 21.4 |  |  | inhibition of growth at 100 µg/mL [8]: 90.7%; inhibition of growth at 80 µg/mL [9]: 86% |
| CCCCCCCN=C=S [1-ISOTHIOCYANATOHEPTANE] | 62 | 46.6 | 21.6 | 4.19 | 7.51 (≈ 47.7 µM) | 97 | 84.1 | 68 | 54.5 (≈ 346 µM) | 75.1 |  | 89.1 | 28.8 | inhibition of growth at 30 µg/mL [17]: 94.4% |
| CCCCN=C=S [BUTYL ISOTHIOCYANATE] | 68.2 | 57.7 | 15.5 | 2.66 | 26.1 (≈ 227 µM) |  | 84.4 | 43.9 | 42.8 (≈ 372 µM) | 91.6 | 3.72 |  | 31.7 | inhibition of growth at 0.2 µg/mL [19]: 10.7%; inhibition of growth at 0.05 µg/mL [20]: 6.38% |
| CCN=C=S [ETHYL ISOTHIOCYANATE] | 91.8 | 67.3 | 61.1 | 1.64 | 41.6 (≈ 478 µM) | 64.6 | 11.7 | 6.74 | 3.52 (≈ 40.4 µM) |  | 58.8 |  |  | inhibition of growth at 70 µg/mL [21]: 73.9%; inhibition of growth at 70 µg/mL [22]: 94.8%; inhibition of growth at 30 µg/mL [17]: 48.5% |
| CCCCCCCCN=C=S [1-ISOTHIOCYANATOOCTANE] | 74.8 | 66.1 | 21.8 | 4.7 | 1.17 (≈ 6.83 µM) |  |  | 83.1 | 34.7 (≈ 203 µM) | 82.2 |  | 84.2 | 70.6 | inhibition of growth at 0.5 µg/mL [23]: 24.7%; inhibition of growth at 0.01 µg/mL [24]: 6.4%; inhibition of growth at 1 µg/mL [25]: 47.8% |
| CCCCCN=C=S [1-ISOTHIOCYANATOPENTANE] | 44.6 | 34.9 | 16 | 3.17 | 2.03 (≈ 15.7 µM) |  |  |  | 90 (≈ 696 µM) | 69 |  | 87.4 | 72.3 | inhibition of growth at 0.02 µg/mL [26]: 2.04%; inhibition of growth at 0.5 µg/mL [23]: 26.2%; inhibition of growth at 2 µg/mL [27]: 36%; inhibition of growth at 0.2 µg/mL [19]: 22.3% |
| CCCCCCN=C=S [1-ISOTHIOCYANATOHEXANE] |  |  |  | 3.68 |  |  |  |  |  |  |  |  |  |  |
